Test results reported in ChEMBL document CHEMBL5724806, “Unraveling interindividual differences and functional consequences of gut microbial metabolism of immunosuppressants” (2024).

Assays:
Type in all cases: ADME
[1] = The drug is tested on Streptococcus sanguinis strain: DSM20567 for biotransformation under anaerobic condition. The drug concentrations were measured over 6 timepoints collected between 0 and 12 hours of incubation by liquid-chromatography-coupled mass spectrometry (LC–MS); parameters: dose 5 uM, timepoint 0, 1.5, 3, 6, 9, 12 hours; conditions: 5 µM
[2] = The drug is tested on Collinsella aerofaciens strain: DSM3979 for biotransformation under anaerobic condition. The drug concentrations were measured over 6 timepoints collected between 0 and 12 hours of incubation by liquid-chromatography-coupled mass spectrometry (LC–MS); parameters: dose 5 uM, timepoint 0, 1.5, 3, 6, 9, 12 hours; conditions: 5 µM
[3] = The drug is tested on Lactobacillus fermentum strain: DSM20052 for biotransformation under microaerobic condition. The drug concentrations were measured over 6 timepoints collected between 0 and 12 hours of incubation by liquid-chromatography-coupled mass spectrometry (LC–MS); parameters: dose 5 uM, timepoint 0, 1.5, 3, 6, 9, 12 hours; conditions: limosilactobacillus fermentum, 5 µM
[4] = The drug is tested on Streptococcus mitis strain: DSM12643 for biotransformation under microaerobic condition. The drug concentrations were measured over 6 timepoints collected between 0 and 12 hours of incubation by liquid-chromatography-coupled mass spectrometry (LC–MS); parameters: dose 5 uM, timepoint 0, 1.5, 3, 6, 9, 12 hours; conditions: 5 µM
[5] = The drug is tested on the gut metagenome community of P-01 with ENA study accession number: PRJEB31790 for biotransformation under microaerobic condition. The drug concentrations were measured over 7 timepoints collected between 0 and 12 hours of incubation by liquid-chromatography-coupled mass spectrometry (LC–MS); parameters: dose 5 uM, timepoint 0, 0.75, 1.5, 3, 6, 9, 12 hours; conditions: 5 µM
[6] = The drug is tested on the gut metagenome community of A-10 with ENA study accession number: PRJEB31790 for biotransformation under anaerobic condition. The drug concentrations were measured over 7 timepoints collected between 0 and 12 hours of incubation by liquid-chromatography-coupled mass spectrometry (LC–MS); parameters: dose 5 uM, timepoint 0, 0.75, 1.5, 3, 6, 9, 12 hours; conditions: 5 µM
[7] = The drug is tested on Actinomyces naeslundi strain: DSM43013 for biotransformation under microaerobic condition. The drug concentrations were measured over 6 timepoints collected between 0 and 12 hours of incubation by liquid-chromatography-coupled mass spectrometry (LC–MS); parameters: dose 5 uM, timepoint 0, 1.5, 3, 6, 9, 12 hours; conditions: actinomyces naeslundii, 5 µM
[8] = The drug is tested on Lactobacillus gasseri strain: DSM20243 for biotransformation under microaerobic condition. The drug concentrations were measured over 6 timepoints collected between 0 and 12 hours of incubation by liquid-chromatography-coupled mass spectrometry (LC–MS); parameters: dose 5 uM, timepoint 0, 1.5, 3, 6, 9, 12 hours; conditions: 5 µM
[9] = The drug is tested on Blautia hansenii strain: DSM20583 for biotransformation under anaerobic condition. The drug concentrations were measured over 6 timepoints collected between 0 and 12 hours of incubation by liquid-chromatography-coupled mass spectrometry (LC–MS); parameters: dose 5 uM, timepoint 0, 1.5, 3, 6, 9, 12 hours; conditions: 5 µM
[10] = The drug is tested on Lactobacillus gasseri strain: DSM20243 for biotransformation under anaerobic condition. The drug concentrations were measured over 6 timepoints collected between 0 and 12 hours of incubation by liquid-chromatography-coupled mass spectrometry (LC–MS); parameters: dose 5 uM, timepoint 0, 1.5, 3, 6, 9, 12 hours; conditions: 5 µM
[11] = The drug is tested on Streptococcus mitis strain: DSM12643 for biotransformation under anaerobic condition. The drug concentrations were measured over 6 timepoints collected between 0 and 12 hours of incubation by liquid-chromatography-coupled mass spectrometry (LC–MS); parameters: dose 5 uM, timepoint 0, 1.5, 3, 6, 9, 12 hours; conditions: 5 µM
[12] = The drug is tested on Actinomyces graevenitzii strain: DSM15540 for biotransformation under microaerobic condition. The drug concentrations were measured over 6 timepoints collected between 0 and 12 hours of incubation by liquid-chromatography-coupled mass spectrometry (LC–MS); parameters: dose 5 uM, timepoint 0, 1.5, 3, 6, 9, 12 hours; conditions: 5 µM
[13] = The drug is tested on Ruminococcus gnavus strain: ATCC29149 for biotransformation under anaerobic condition. The drug concentrations were measured over 6 timepoints collected between 0 and 12 hours of incubation by liquid-chromatography-coupled mass spectrometry (LC–MS); parameters: dose 5 uM, timepoint 0, 1.5, 3, 6, 9, 12 hours; conditions: mediterraneibacter gnavus, 5 µM
[14] = The drug is tested on Lactobacillus paracasei strain: ATCC27092 for biotransformation under anaerobic condition. The drug concentrations were measured over 6 timepoints collected between 0 and 12 hours of incubation by liquid-chromatography-coupled mass spectrometry (LC–MS); parameters: dose 5 uM, timepoint 0, 1.5, 3, 6, 9, 12 hours; conditions: lacticaseibacillus paracasei, 5 µM
[15] = The drug is tested on Streptococcus anginosus strain: DSM20563 for biotransformation under anaerobic condition. The drug concentrations were measured over 6 timepoints collected between 0 and 12 hours of incubation by liquid-chromatography-coupled mass spectrometry (LC–MS); parameters: dose 5 uM, timepoint 0, 1.5, 3, 6, 9, 12 hours; conditions: 5 µM
[16] = The drug is tested on the gut metagenome community of A-01 with ENA study accession number: PRJEB31790 for biotransformation under anaerobic condition. The drug concentrations were measured over 7 timepoints collected between 0 and 12 hours of incubation by liquid-chromatography-coupled mass spectrometry (LC–MS); parameters: dose 5 uM, timepoint 0, 0.75, 1.5, 3, 6, 9, 12 hours; conditions: 5 µM
[17] = The drug is tested on Faecalibacterium prausnitzii strain: DSM17677 for biotransformation under anaerobic condition. The drug concentrations were measured over 6 timepoints collected between 0 and 12 hours of incubation by liquid-chromatography-coupled mass spectrometry (LC–MS); parameters: dose 5 uM, timepoint 0, 1.5, 3, 6, 9, 12 hours; conditions: faecalibacterium duncaniae, 5 µM
[18] = The drug is tested on Clostridium scindens strain: DSM5676 for biotransformation under anaerobic condition. The drug concentrations were measured over 6 timepoints collected between 0 and 12 hours of incubation by liquid-chromatography-coupled mass spectrometry (LC–MS); parameters: dose 5 uM, timepoint 0, 1.5, 3, 6, 9, 12 hours; conditions: 5 µM
[19] = The drug is tested on Gemella morbillorum strain: DSM20572 for biotransformation under microaerobic condition. The drug concentrations were measured over 6 timepoints collected between 0 and 12 hours of incubation by liquid-chromatography-coupled mass spectrometry (LC–MS); parameters: dose 5 uM, timepoint 0, 1.5, 3, 6, 9, 12 hours; conditions: 5 µM
[20] = The drug is tested on the gut metagenome community of A-03 with ENA study accession number: PRJEB31790 for biotransformation under anaerobic condition. The drug concentrations were measured over 7 timepoints collected between 0 and 12 hours of incubation by liquid-chromatography-coupled mass spectrometry (LC–MS); parameters: dose 5 uM, timepoint 0, 0.75, 1.5, 3, 6, 9, 12 hours; conditions: 5 µM
[21] = The drug is tested on the gut metagenome community of A-09 with ENA study accession number: PRJEB31790 for biotransformation under anaerobic condition. The drug concentrations were measured over 7 timepoints collected between 0 and 12 hours of incubation by liquid-chromatography-coupled mass spectrometry (LC–MS); parameters: dose 5 uM, timepoint 0, 0.75, 1.5, 3, 6, 9, 12 hours; conditions: 5 µM
[22] = The drug is tested on Parabacteroides distasonis strain: DSM20701 for biotransformation under anaerobic condition. The drug concentrations were measured over 6 timepoints collected between 0 and 12 hours of incubation by liquid-chromatography-coupled mass spectrometry (LC–MS); parameters: dose 5 uM, timepoint 0, 1.5, 3, 6, 9, 12 hours; conditions: 5 µM
[23] = The drug is tested on Bifidobacterium adolescentis strain: DSM20083 for biotransformation under anaerobic condition. The drug concentrations were measured over 6 timepoints collected between 0 and 12 hours of incubation by liquid-chromatography-coupled mass spectrometry (LC–MS); parameters: dose 5 uM, timepoint 0, 1.5, 3, 6, 9, 12 hours; conditions: 5 µM
[24] = The drug is tested on Clostridium bolteae strain: DSM15670 for biotransformation under anaerobic condition. The drug concentrations were measured over 6 timepoints collected between 0 and 12 hours of incubation by liquid-chromatography-coupled mass spectrometry (LC–MS); parameters: dose 5 uM, timepoint 0, 1.5, 3, 6, 9, 12 hours; conditions: enterocloster bolteae, 5 µM
[25] = The drug is tested on the gut metagenome community of P-03 with ENA study accession number: PRJEB31790 for biotransformation under microaerobic condition. The drug concentrations were measured over 7 timepoints collected between 0 and 12 hours of incubation by liquid-chromatography-coupled mass spectrometry (LC–MS); parameters: dose 5 uM, timepoint 0, 0.75, 1.5, 3, 6, 9, 12 hours; conditions: 5 µM
[26] = The drug is tested on the gut metagenome community of T-01 with ENA study accession number: PRJEB31790 for biotransformation under anaerobic condition. The drug concentrations were measured over 7 timepoints collected between 0 and 12 hours of incubation by liquid-chromatography-coupled mass spectrometry (LC–MS); parameters: dose 5 uM, timepoint 0, 0.75, 1.5, 3, 6, 9, 12 hours; conditions: 5 µM

Measured: Bacterial Biotransformation

CN(Cc1cnc2nc(N)nc(N)c2n1)c1ccc(C(=O)N[C@@H](CCC(=O)O)C(=O)O)cc1 [METHOTREXATE]
Compound metabolized: [6] | [20] | [21]
Compound NOT metabolized: all other assays above

C[C@H]1C[C@@H]2[C@H]([C@@H](O)C[C@@]3(C)[C@H]2CC[C@]3(O)C(=O)CO)[C@@]2(C)C=CC(=O)C=C12 [METHYLPREDNISOLONE]
Compound metabolized: [5] | [6] | [13] | [16] | [18] | [20] | [21] | [25]
Compound NOT metabolized: all other assays above

COc1c(C)c2c(c(O)c1C/C=C(\C)CCC(=O)OCCN1CCOCC1)C(=O)OC2 [MYCOPHENOLATE MOFETIL]
Compound NOT metabolized: [7] | [8] | [9] | [13] | [18] | [19] | [23] | [24]
Compound metabolized: all other assays above
